Molecules are shown by their SMILES. Active and inactive are the calls of the source. A value given as a limit tells only on which side of the number the result lay.

Assay [1] addresses Latent membrane protein 1 (Human herpesvirus 4 (strain B95-8), UniProt P03230). Nature of the assay: LMP1 TES1 pathway selectivity over dsRED control – imaging, HEK293T, dual-color eGFP/dsRED, cherry-picks, selectivity assay for LMP1 NF-kB inhibitor project, dose response (AID 588398). Format: functional, cell-based.
Assay [2] is described as follows: Luminescence Cell-Based Dose Retest to Confirm Inhibitors of Cancer Stem Cells. [Related pubchem assays (depositor defined):AID2717, AID2721]. Conditions: Homo sapiens. Type of assay: functional.
Assay [3] has as its system CHO. Put plainly: CHO cell viability loss, potency – luminescence, cytotoxicity control for TLR9-MyD88 binding inhibitor project, dose response (AID 588339).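 Further: CHO cells stably coexpressing TLR9 and MyD88 fusions from primary screen; compound exposure lasted 48 hours before viability readout.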 Type of assay: functional, cell-based, hamster. Conditions: Cricetulus griseus.
Assay [4] deals with Beta Lactamase (Pseudomonas aeruginosa, UniProt Q932Y6). Put plainly: BLA reporter interference, concentration series – BLA reporter cells, FRET fluorescence, artefact control for TLR9-MyD88 binding inhibitor project, dose response (AID 588341).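 Further: cell based assay in CHO-K1 cells stably expressing beta-lactamase.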 Format: cell-based.
For assay [5], the system named is HEK293. Nature of the assay: EBV LMP1 TES2 canonical NF-kB signalling blockers – cell-based, HEK293, luciferase, cherry-pick, dose response (AID 588343). Conditions: Homo sapiens. Type of assay: functional.
Assay [6] addresses T1, Protein Rev (Human immunodeficiency virus type 1 group M subtype B (isolate HXB2)(HIV-1), UniProt P04618).
T1 sequence (P04618 whole entry): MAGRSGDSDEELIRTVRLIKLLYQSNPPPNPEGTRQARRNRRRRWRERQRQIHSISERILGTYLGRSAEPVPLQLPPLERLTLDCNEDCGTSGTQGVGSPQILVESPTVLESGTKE
Nature of the assay: blockers of HIV Rev/RRE RNA complex – biochemical, fluorescence polarization, HIV-1, dose response (AID 434976). Set-up: species or system Human immunodeficiency virus 1.

For assay [7], the target named is T2, Female germline-specific tumor suppressor gld-1 (Caenorhabditis elegans, UniProt Q17339).
T2 sequence (Q17339 whole entry): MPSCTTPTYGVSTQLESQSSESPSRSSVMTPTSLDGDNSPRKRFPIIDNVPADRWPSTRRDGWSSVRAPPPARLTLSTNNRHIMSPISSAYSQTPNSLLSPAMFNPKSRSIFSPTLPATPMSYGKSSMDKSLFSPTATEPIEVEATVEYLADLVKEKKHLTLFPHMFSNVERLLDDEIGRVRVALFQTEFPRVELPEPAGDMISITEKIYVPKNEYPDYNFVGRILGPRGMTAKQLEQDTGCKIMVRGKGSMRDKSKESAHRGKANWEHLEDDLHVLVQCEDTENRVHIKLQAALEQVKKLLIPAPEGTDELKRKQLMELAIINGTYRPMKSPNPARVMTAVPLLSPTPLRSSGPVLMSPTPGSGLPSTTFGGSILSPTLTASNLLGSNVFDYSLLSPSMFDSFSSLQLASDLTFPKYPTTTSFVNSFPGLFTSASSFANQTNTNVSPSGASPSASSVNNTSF
Nature of the assay: blockers of GLD-1/TGE RNA complex formation – biochemical, fluorescence polarization, C. elegans, dose response (AID 2802).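 Further: fluorescence polarization of labeled TGE RNA bound by purified gld-1 protein.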

The target of assay [8] is Cytochrome P450 3A4 (Homo sapiens, UniProt P08684).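 Further: CYP3A4 tested as one member of a cytochrome P450 panel screen.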
Assay [9] can be described thus: Luminescence Cell-Based Dose Confirmation HTS to Identify Activators of 5'UTR Stem-Loop Driven Alpha-Synuclein mRNA Translation in H4 Neuroglioblastoma Cells. [Related pubchem assays: 1829 (Project Summary), 1814 (Primary HTS)]. Format: functional.
Assay [10] relates to HEK293. Nature of the assay: optical interference in Abeta FP readout, dose response, artefact control for IDE activator project, biochemical, fluorescence polarization (AID 588442). Type of assay: functional, cell-based. Conditions: Homo sapiens.
Assay [11] deals with INS1. Nature of the assay: INS-1E survival protection against cytokine death – cell-based, luminescence, retest, dose response (AID 449756).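 Further: cell death triggered by IL-1 beta plus TNF-alpha plus IFN-gamma mixture; protective hits raise ATP signal compared with cytokine alone wells.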 Type of assay: functional. Conditions: Rattus norvegicus.
The target in assay [12] is T3, Insulin-degrading enzyme (Homo sapiens, UniProt P14735).
T3 sequence (P14735 whole entry): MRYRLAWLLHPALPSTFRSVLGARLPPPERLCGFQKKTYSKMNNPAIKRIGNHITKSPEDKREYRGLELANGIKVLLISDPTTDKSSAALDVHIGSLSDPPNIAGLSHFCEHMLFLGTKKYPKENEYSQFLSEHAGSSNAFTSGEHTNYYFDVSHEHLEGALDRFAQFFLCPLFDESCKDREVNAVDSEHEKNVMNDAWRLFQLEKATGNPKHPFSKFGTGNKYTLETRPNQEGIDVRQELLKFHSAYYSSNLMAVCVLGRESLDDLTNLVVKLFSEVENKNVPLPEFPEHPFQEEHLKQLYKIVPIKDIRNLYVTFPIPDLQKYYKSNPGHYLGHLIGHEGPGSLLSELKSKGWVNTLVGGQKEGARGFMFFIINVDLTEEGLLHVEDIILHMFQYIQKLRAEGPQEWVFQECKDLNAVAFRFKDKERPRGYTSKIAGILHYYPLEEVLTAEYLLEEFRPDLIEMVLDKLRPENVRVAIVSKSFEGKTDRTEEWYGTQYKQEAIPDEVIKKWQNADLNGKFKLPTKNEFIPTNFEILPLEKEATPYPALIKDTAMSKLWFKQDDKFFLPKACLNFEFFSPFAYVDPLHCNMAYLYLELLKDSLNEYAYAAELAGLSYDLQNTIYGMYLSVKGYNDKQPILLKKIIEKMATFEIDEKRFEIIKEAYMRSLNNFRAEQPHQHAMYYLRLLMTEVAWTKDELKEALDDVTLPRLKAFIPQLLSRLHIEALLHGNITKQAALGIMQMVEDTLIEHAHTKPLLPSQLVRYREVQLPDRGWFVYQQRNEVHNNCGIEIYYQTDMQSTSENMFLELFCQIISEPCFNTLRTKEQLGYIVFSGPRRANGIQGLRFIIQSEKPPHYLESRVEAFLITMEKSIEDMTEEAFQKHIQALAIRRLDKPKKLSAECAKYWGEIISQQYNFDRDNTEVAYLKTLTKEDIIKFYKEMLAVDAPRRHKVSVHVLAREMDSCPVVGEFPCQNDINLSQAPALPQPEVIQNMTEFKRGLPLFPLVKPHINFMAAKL
Put plainly: cellular IDE activation of Abeta substrate cleavage – fluorescence polarization, HEK cells, dose response (AID 588439). Type of assay: functional, cell-based.

Assay [13] can be described thus: Luminescence Cell-Based Dose Response HTS to Identify Activators of Luciferase Translation or Activity in H4 […] Cells. [Related pubchem assays: 1829 (Project Summary), 1814 (Primary HTS)]. Type of assay: functional.
In assay [14] the target is T4, Zinc finger protein mex-5 (Caenorhabditis elegans, UniProt Q9XUB2).
T4 sequence (Q9XUB2 whole entry): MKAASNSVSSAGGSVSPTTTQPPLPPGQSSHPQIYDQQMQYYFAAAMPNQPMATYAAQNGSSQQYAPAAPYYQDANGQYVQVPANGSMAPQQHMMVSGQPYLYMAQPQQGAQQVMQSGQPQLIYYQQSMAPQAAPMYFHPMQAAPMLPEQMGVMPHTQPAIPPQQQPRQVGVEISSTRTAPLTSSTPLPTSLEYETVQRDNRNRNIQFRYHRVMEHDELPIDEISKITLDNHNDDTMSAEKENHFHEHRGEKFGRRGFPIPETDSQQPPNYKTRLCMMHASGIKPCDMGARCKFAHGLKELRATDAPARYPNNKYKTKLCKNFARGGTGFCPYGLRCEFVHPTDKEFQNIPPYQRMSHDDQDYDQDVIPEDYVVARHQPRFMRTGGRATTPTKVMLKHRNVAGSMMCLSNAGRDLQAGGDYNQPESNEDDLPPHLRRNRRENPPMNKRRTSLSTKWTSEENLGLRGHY
Nature of the assay: potency of MEX-5 RNA-binding blockers – biochemical, C. elegans, fluorescence polarization, dose response (AID 1960).

In assay [15] the test system is H4. Nature of the assay: Luminescence Cell-Based Dose Response HTS to Identify Activators of 5'UTR Stem-Loop Driven Prion Protein mRNA Translation in H4 Neuroglioblastoma Cells. [Related pubchem assays: 1829 (Project Summary), 1814 (Primary HTS)]. Type of assay: functional. Conditions: Homo sapiens.
In assay [16] the test system is HEK293. Nature of the assay: membrane integrity loss in HEK cells – cell-based, fluorescence, cytotoxicity control for IDE activator project, dose response (AID 588440).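 Further: cytotoxicity by LDH release measuring loss of membrane integrity.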 Format: functional. Conditions: Homo sapiens.
In assay [17] the target is T5, RNA-binding protein pos-1 (Caenorhabditis elegans, UniProt G5EF15).
T5 sequence (G5EF15 whole entry): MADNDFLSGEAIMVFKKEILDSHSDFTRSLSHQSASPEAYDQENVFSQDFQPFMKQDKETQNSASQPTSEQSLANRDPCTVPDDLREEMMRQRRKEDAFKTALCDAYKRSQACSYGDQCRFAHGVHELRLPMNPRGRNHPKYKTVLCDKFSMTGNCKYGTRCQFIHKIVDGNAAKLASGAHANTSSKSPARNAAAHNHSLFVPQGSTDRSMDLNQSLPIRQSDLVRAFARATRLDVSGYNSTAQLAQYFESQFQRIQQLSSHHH
Put plainly: disruptors of C. elegans POS-1 RNA interaction – biochemical, fluorescence polarization, dose response (AID 1964).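 Further: purified POS-1 fused to maltose binding protein made in E. coli; potency of compounds blocking POS-1 binding to fluorescent RNA.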

Assay [18] addresses T3, Insulin-degrading enzyme. Put plainly: recombinant IDE activation, cell-free – biochemical, fluorescence polarization, counter-screen for IDE activator project, dose response (AID 588681).
The target in assay [19] is Sphingosine 1-phosphate receptor 2 (Homo sapiens, UniProt O95136). Nature of the assay: Dose Response Cell Based Assay for Antagonists of the S1P2 Receptor. [Related pubchem assays: 856, 736 ]. Format: functional.
The test system of assay [20] is BJ. Put plainly: BJ-TERT-LT-ST fibroblast viability loss – cell-based, RAS-independent, luminescence, dose response (AID 1935).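 Further: BJ fibroblasts immortalized with TERT plus LT and ST oncogenes.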 Format: functional. Conditions: Homo sapiens.
The subject of assay [21] is BJ. Nature of the assay: BJ-TERT fibroblast viability loss – cell-based, RAS-independent, luminescence, dose response (AID 1933). Format: functional. Conditions: Homo sapiens.
In assay [22] the target is DNA dC->dU-editing enzyme APOBEC-3G (Homo sapiens, UniProt Q9HC16). Put plainly: Dose Response confirmation of small molecule APOBEC3G DNA Deaminase Inhibitors via a fluorescence-based single-stranded DNA deaminase assay. [Related pubchem assays (depositor defined):AID493012, AID493028]. Type of assay: functional.
The target of assay [23] is DNA dC->dU-editing enzyme APOBEC-3A (Homo sapiens, UniProt P31941). Nature of the assay: A3A deaminase inhibition for selectivity – biochemical, dose response (AID 504722). Format: functional.
Assay [24] has as its system BJ. Nature of the assay: cells. Type of assay: functional, cell-based. Conditions: Homo sapiens.
Assay [25] concerns BJ. Put plainly: growth inhibition of engineered Ras-driven BJ cells – cell-based, alamar blue fluorescence, cherrypicked samples, dose response (AID 2631).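 Further: confirmatory dose-response assay in RAS-dependent BJ fibroblasts engineered with TERT, LT and ST, with cytotoxicity read by fluorescence.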 Type of assay: functional. Conditions: Homo sapiens.
Assay [26] has as its target T6, Mannose-6-phosphate isomerase (Homo sapiens, UniProt P34949).
T6 sequence (P34949 whole entry): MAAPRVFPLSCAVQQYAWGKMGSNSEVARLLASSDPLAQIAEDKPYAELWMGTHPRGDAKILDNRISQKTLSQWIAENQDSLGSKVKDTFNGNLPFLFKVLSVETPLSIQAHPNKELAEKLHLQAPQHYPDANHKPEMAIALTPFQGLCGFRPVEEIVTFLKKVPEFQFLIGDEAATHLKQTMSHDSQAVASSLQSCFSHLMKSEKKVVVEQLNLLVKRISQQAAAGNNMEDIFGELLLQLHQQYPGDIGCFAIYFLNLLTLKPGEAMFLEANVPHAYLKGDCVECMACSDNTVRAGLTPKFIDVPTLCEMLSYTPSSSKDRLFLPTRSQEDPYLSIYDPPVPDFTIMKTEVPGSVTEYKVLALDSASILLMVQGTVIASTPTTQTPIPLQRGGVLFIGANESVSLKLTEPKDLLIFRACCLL
Nature of the assay: MPI inhibition at elevated mannose 6-phosphate – biochemical, fluorescence intensity, high mannose 6-phosphate, primary screen (AID 1220).

Assay [27] can be described thus: DRD fibroblast viability loss – cell-based, non-viral oncogenic, luminescence, dose response (AID 1934). Type of assay: functional. Conditions: Homo sapiens.

Beta Lactamase, sequence (Q932Y6 whole entry): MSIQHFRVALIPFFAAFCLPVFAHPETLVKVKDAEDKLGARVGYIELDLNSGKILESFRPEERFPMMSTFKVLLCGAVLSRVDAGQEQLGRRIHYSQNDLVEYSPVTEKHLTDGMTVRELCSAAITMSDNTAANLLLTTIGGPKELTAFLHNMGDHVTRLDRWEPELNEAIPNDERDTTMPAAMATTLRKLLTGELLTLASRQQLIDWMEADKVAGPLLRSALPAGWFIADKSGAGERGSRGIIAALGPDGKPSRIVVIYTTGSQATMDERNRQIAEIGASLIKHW
Latent membrane protein 1, sequence (P03230 whole entry): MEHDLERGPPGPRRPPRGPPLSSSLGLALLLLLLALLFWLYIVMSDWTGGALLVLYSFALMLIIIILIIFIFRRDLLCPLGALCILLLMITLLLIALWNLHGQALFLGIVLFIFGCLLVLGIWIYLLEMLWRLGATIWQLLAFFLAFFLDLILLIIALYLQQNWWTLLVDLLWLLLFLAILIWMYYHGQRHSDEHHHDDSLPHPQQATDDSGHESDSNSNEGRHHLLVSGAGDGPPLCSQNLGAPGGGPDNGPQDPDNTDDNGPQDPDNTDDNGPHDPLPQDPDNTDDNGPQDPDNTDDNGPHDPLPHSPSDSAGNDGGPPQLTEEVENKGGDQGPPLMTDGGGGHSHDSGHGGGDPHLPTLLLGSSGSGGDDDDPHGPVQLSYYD
DNA dC->dU-editing enzyme APOBEC-3G, sequence (Q9HC16 whole entry): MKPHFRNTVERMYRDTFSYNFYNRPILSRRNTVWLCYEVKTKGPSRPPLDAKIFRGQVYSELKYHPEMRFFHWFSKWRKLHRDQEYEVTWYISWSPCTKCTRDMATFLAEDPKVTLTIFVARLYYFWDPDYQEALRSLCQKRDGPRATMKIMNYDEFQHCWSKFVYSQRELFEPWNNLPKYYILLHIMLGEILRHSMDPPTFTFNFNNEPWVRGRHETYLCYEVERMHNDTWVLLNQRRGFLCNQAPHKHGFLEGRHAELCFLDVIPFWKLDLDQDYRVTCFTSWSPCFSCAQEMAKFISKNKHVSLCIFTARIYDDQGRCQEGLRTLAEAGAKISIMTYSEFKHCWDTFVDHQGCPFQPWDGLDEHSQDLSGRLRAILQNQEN
Cytochrome P450 3A4, sequence (P08684 whole entry): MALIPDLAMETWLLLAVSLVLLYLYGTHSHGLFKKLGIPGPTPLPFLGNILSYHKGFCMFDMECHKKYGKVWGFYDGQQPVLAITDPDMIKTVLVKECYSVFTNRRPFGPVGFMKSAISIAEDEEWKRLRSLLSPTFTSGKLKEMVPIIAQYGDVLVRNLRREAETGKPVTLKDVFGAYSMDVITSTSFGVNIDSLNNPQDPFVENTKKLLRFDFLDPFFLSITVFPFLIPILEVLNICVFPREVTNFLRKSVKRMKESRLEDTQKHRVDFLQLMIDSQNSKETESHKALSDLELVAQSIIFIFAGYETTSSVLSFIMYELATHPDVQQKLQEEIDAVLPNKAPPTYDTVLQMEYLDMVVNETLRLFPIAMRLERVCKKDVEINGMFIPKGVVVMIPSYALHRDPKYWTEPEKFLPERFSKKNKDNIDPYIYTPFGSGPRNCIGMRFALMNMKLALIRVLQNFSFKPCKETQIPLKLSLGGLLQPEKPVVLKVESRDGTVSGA
DNA dC->dU-editing enzyme APOBEC-3A, sequence (P31941 whole entry): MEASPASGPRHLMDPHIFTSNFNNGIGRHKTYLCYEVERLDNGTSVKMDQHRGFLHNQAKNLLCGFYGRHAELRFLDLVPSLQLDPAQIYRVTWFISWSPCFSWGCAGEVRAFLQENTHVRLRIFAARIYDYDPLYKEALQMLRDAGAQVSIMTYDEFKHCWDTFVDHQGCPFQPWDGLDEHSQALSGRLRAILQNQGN
Sphingosine 1-phosphate receptor 2, sequence (O95136 whole entry): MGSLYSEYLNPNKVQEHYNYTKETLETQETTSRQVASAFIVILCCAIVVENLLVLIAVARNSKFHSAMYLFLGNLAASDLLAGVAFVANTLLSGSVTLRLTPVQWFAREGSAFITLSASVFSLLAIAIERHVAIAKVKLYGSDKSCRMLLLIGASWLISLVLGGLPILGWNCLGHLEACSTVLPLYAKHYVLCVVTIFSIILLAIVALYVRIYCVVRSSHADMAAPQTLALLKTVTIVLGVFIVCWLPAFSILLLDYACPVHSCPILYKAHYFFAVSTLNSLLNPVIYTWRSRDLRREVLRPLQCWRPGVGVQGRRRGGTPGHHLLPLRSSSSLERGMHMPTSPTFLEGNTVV

Consider `COc1cccc(-c2nc(NCc3ccccc3)c3ccccc3n2)c1O`, for which, in assay [1], the AC50 was 91 µM (active).
Turning to `CCC(C)Sc1ccc(-c2nc3cnccn3c2NC2CCCCC2)cc1` (stereo not given), the AC50 in [2] is 3.63 µM (active). Besides, the figures for the IC50 in [3] and in assay [4] were 21.4 µM (inactive) and 3.68 µM (active), respectively.
Take `Cc1ccc(S(=O)(=O)NC(CC(C)C)C(=O)NCC(c2ccco2)N2CCCCC2)cc1` (stereo not given): the AC50 in assay [1] is 24.5 µM (active); in assay [5], 1.8 µM (active).
On to `Cc1ccc(S(=O)(=O)N[C@H](C(=O)Oc2ccc3c(C(F)(F)F)cc(=O)oc3c2)c2ccccc2)cc1`, for which the IC50 is 26.9 µM (not active) in assay [6], > 49.7 µM (inactive) in assay [3], 3.73 µM (active) in assay [4] and 3.89 µM (active) in assay [7]. For the same molecule, in assay [8], the AC50 is 25.1 µM (inconclusive).
As for `Cc1ccc(NNC2=C3N=NN=C3C=CC2=O)cc1`, the EC50 in assay [9] was 0.399 µM (active); in [10] it was 0.659 µM (active); in [12] it was 0.891 µM (active); in assay [13], 50.3 µM (active); in [14], 2.99 µM (active); in assay [15], > 120 µM (not active). The EC50 in assay [17] is 22.4 µM (active); in assay [18], 1.32 µM (active). Further, the concentration at half-maximal activity (AC50) in [11] was 5.05 µM (active). Moreover, the IC50 in assay [16] is > 89.3 µM (inactive).
On to `CC1=C/C(=N\OS(=O)(=O)c2ccccc2)C=CC1=O`, for which the IC50 in assay [19] was 5.98 µM (active); in assay [22], 7.43 µM (active); in assay [23], > 100 µM (inactive); in assay [26] it was 2.71 µM (active). Further, the EC50 in assay [20] was 4.43 µM (inconclusive); in [21], 2.56 µM (active); in assay [24], 3.33 µM (active); in assay [25], 0.542 µM (inconclusive); in [27] it was 6.19 µM (active).

The values are drawn from ChEMBL document CHEMBL1201862, “PubChem BioAssay data set” (2004).
